# Assay results as given in patent publication US9066518B2, “Heterocyclic compounds as pesticides” (Bayer CropScience AG, priority 2009, dated 2015).
# Like-named read-outs stand apart in the source and are kept apart here.
# Columns and labels:
# [1] = system: green peach aphid (Myzus persicae); experiment: Myzus test (spray treatment); type: in vivo; details: foliar, 144 h, read-out: activity (effect in %, aphids killed)
# Description: Solvents: 78 parts by weight of acetone
# • 1.5 parts by weight of dimethylformamide Emulsifier 0.5 part by weight of alkylaryl polyglycol ether
# To produce a suitable preparation of active compound, 1 part by weight of active compound is mixed with the stated amounts of solvents and emulsifier, and the concentrate is diluted with emulsifier-containing water to the desired concentration. Discs of leaves of Chinese cabbage (Brassica pekinensis) which are infested by all stages of the green peach aphid (Myzus persicae) are sprayed with an active compound preparation of the desired concentration.
# After 6 days, the effect in % is determined. 100% means that all aphids have been killed; 0% means that none of the aphids has been killed.
# [2] = physchem
# [3] = logP determination (neutral / HCOOH); details: for chromatographic logP: HCOOH (formic acid)
# [4] = application rate 500 g/ha, after 6 days, Chinese cabbage leaf discs
SMILES,"logP ([3]; logP (neutral), neutral)","chromatographic logP ([3]; logP (HCOOH), HCOOH)","pest or weed control at 500 g/ha [1, 4]",also measured
"c1cnc(-c2cccc(-c3cnn(-c4cccnc4)c3)n2)nc1 [Example 1, 2-[6-(1-Pyridin-3-yl-1H-pyrazol-4-yl)pyridin-2-yl]pyrimidine]",,,,pest or weed control at 500 g/ha ([1]; in Brassica rapa): 100%; chromatographic logP [2]: 1.36; logP [2]: 1.52
COCC1(c2cccc(-c3cnn(-c4cccnc4)c3)n2)OCCCO1 [Example 49],1.69,,100%,
FC(F)(F)c1ccc(-c2cnn(-c3cccnc3)c2)cc1 [Example 50],,2.98,90%,
Clc1ccc(-c2cnn(-c3cccnc3)c2)cc1 [Example 51],,2.71,90%,
c1cncc(-n2cc(-c3cccc(C4=NOCCO4)n3)cn2)c1 [Example 55],,1.4,,"pest or weed control at 100 g/ha ([1]; application rate 100 g/ha, after 6 days, Chinese cabbage leaf discs): 100%"
Fc1cncc(-n2cc(-c3cccc(C(F)(F)F)n3)cn2)c1 [Example 59],3.14,3.1,100%,
c1cncc(-n2cc(-c3cccc(C4OCC5(CC5)CO4)n3)cn2)c1 [Example 60],2.12,1.97,100%,
c1cncc(-n2cc(-c3cccc(-c4noc(C5CC5)n4)n3)cn2)c1 [Example 62],,2.16,100%,
c1cc(-c2cnn(-c3cncnc3)c2)nc(C2OCCCO2)c1 [Example 68],1.56,1.51,100%,
Fc1cncc(-n2cc(-c3cccc(C4OCCCO4)n3)cn2)c1 [Example 73],2.13,2.12,100%,
FC(F)(F)c1nc(-c2cccc(-c3cnn(-c4cccnc4)c3)n2)no1 [Example 74],,2.77,100%,
C=C1COC(c2cccc(-c3cnn(-c4cccnc4)c3)n2)OC1 [Example 75],,1.9,100%,
CCOc1cc(OCC)nc(-c2nccc(-c3cnn(-c4cccnc4)c3)n2)n1 [Example 82],,2.23,100%,
"COCC(=O)c1cccc(-c2cnn(-c3cccnc3)c2)n1 [Example 85, 2-Methoxy-1-[6-(1-pyridin-3-yl-1H-pyrazol-4-yl)pyridin-2-yl]ethanone]",,,100%,"logP ([3]; HCOOH, logP (HCOOH)): 1.66"
O=C(NCC(F)(F)F)c1ccc(-c2cnn(-c3cccnc3)c2)nc1 [Example 87],1.69,1.53,90%,
N#Cc1cncc(-n2cc(-c3cccc(-c4ncccn4)n3)cn2)c1 [Example 88],,1.91,100%,
c1cncc(-n2cc(-c3cccc(C4OCC5(CCC5)O4)n3)cn2)c1 (stereo not shown) [Example 90],2.53,2.37,100%,
c1cnc(-c2ccnn2-c2cnn(-c3cccnc3)c2)nc1 [Example 93],,1.16,100%,
c1cncc(-n2cc(-c3nccs3)cn2)c1 [Example 95],,1.32,90%,
"c1cncc(-n2cc(-c3cc[nH]n3)cn2)c1 [Example 98, 1′-(Pyridin-3-yl)-1H,1′H-3,4′-bipyrazole]",,0.79,100%,logP (HCOOH) ([3]; HCOOH): 0.78
c1cncc(-n2cc(-c3ccncc3)cn2)c1 [Example 101],1.24,0.01,100%,
O=[N+]([O-])c1cnc(-n2ccc(-c3cnn(-c4cccnc4)c3)n2)nc1 [Example 102],,1.64,100%,
Nc1cccc(-c2cnn(-c3cncc(F)c3)c2)n1 [Example 106],1.59,0.64,90%,
FC(F)(F)c1cccc(-c2cnn(-c3cncnc3)c2)n1 [Example 107],2.38,2.36,90%,
N#Cc1cccc(-c2cnn(-c3cncc(F)c3)c2)n1 [Example 108],,2.2,90%,
O=C(NCC(F)(F)F)c1cnc(-c2cnn(-c3cccnc3)c2)cc1C(F)(F)F [Example 109],2.18,2.11,90%,
c1cncc(-n2cc(-c3cnn(-c4cccnc4)c3)cn2)c1 [Example 112],,1.37,80%,

# Second part, led by results:
"logP ([3]; logP (neutral), neutral)","chromatographic logP ([3]; logP (HCOOH), HCOOH)",SMILES,"pest or weed control at 500 g/ha [1, 4]",also measured
,1.63,c1cncc(-n2cc(-c3cccc(-n4nccn4)n3)cn2)c1 [Example 54],100%,
,1.31,CS(=O)(=O)c1cccc(-c2cnn(-c3cccnc3)c2)n1 [Example 56],100%,
,2.12,O=C(NCC(F)(F)F)c1cccc(-c2cnn(-c3cccnc3)c2)n1 [Example 57],100%,
1.68,1.54,CN1CCOC(c2cccc(-c3cnn(-c4cccnc4)c3)n2)=N1 [Example 58],100%,
,1.68,c1cncc(-n2cc(-c3cccc(-n4ccnn4)n3)cn2)c1 [Example 61],90%,
,2.02,FC(F)c1cccc(-c2cnn(-c3cccnc3)c2)n1 [Example 63],100%,
,1.14,c1cncc(-n2cc(-c3cccc(-c4nc[nH]n4)n3)cn2)c1 [Example 64],100%,
,3.22,ClC1(c2cccc(-c3cnn(-c4cccnc4)c3)n2)CC1 [Example 65],90%,
3.22,,CC(C)C(F)(F)c1cccc(-c2cnn(-c3cccnc3)c2)n1 [Example 66],100%,
2.84,,CC(C)C(=O)c1cccc(-c2cnn(-c3cccnc3)c2)n1 [Example 67],100%,
,1.78,CC1(c2cccc(-c3cnn(-c4cccnc4)c3)n2)OCCCO1 [Example 69],100%,
,1.66,Cc1nc(-c2cccc(-c3cnn(-c4cccnc4)c3)n2)no1 [Example 70],100%,
,2.37,CC1CC(C)OC(c2cccc(-c3cnn(-c4cccnc4)c3)n2)O1 (stereo not shown) [Example 71],100%,
,2.13,CC1OC(c2cccc(-c3cnn(-c4cccnc4)c3)n2)OC1C (stereo not shown) [Example 72],100%,logP (HCOOH) ([3]; HCOOH): 2.09
1.69,1.57,c1cncc(-n2cc(-c3cccc(-c4ncco4)n3)cn2)c1 [Example 76],100%,
,2.51,Cc1ccn(-c2cccc(-c3cnn(-c4cccnc4)c3)n2)n1 [Example 77],100%,

"logP ([3]; logP (neutral), neutral)","chromatographic logP ([3]; logP (HCOOH), HCOOH)",SMILES,"pest or weed control at 500 g/ha [1, 4]",also measured
,1.49,CC(=O)NC(NO)c1cccc(-c2cnn(-c3cccnc3)c2)n1 (stereo not shown) [Example 78],100%,
,2.59,Cc1cnn(-c2cccc(-c3cnn(-c4cccnc4)c3)n2)c1 [Example 79],100%,
,1.51,CN(C)C(=O)c1nc(-c2cnn(-c3cccnc3)c2)cs1 [Example 83],100%,
1.45,0.9,c1cncc(-n2cc(-c3cccc(C4=NCCO4)n3)cn2)c1 [Example 84],100%,
1.3,0.29,Nc1cccc(-c2cnn(-c3cccnc3)c2)n1 [Example 86],100%,
,1.37,O=c1ccccn1-c1cccc(-c2cnn(-c3cccnc3)c2)n1 [Example 89],100%,
,0.84,COC(=N)c1cccc(-c2cnn(-c3cccnc3)c2)n1 [Example 91],100%,
1.98,,COCC(F)c1cccc(-c2cnn(-c3cccnc3)c2)n1 (stereo not shown) [Example 92],90%,
,1.31,CC(=O)Nc1cccc(-c2cnn(-c3cccnc3)c2)n1 [Example 94],100%,
0.32,1.36,c1cncc(-n2cc(-c3cccc(-c4nnn[nH]4)n3)cn2)c1 [Example 96],90%,
1.2,0.95,N#CCNC(=O)c1ccc(-c2cnn(-c3cccnc3)c2)nc1 [Example 97],90%,
1.96,1.83,CCOC(=O)c1cccc(-c2cnn(-c3cccnc3)c2)n1 [Example 99],100%,
,0.46,CN1CCN(C(=O)c2cccc(-c3cnn(-c4cccnc4)c3)n2)CC1 [Example 100],100%,
2.28,2.21,O=C(Nc1cccc(-c2cnn(-c3cccnc3)c2)n1)C(F)(F)F [Example 103],90%,
,1.77,Fc1cccc(-c2cnn(-c3cccnc3)c2)n1 [Example 105],80%,
,1.56,O=Cc1cccc(-c2cnn(-c3cccnc3)c2)n1 [Example 110],80%,
